Assay results from ChEMBL document CHEMBL3045108, “Advanced QSRR models of toxicological screening of basic drugs in whole blood by UPLC-TOFMS” (Med Chem Res, 2012).

Test system: Blood
Assay: Drug level in Homo sapiens (human) whole blood assessed as retention time by UPLC-TOF-MS analysis

Row | Structure (SMILES) | Retention_time [min]
1 | CN(C)CCc1c[nH]c2ccccc12 | 2.89
2 | CNC(C)Cc1ccc(OC)cc1 (configuration not stated) | 3.14
3 | CN1CCC[C@@H]1Cc1c[nH]c2ccc(CCS(=O)(=O)c3ccccc3)cc12 | 5.21
4 | CCCc1nc(C)c2c(=O)[nH]c(-c3cc(S(=O)(=O)N4CCN(CC)CC4)ccc3OCC)nn12 | 5.17
5 | CNCCCC1(c2ccc(F)cc2)OCc2cc(C#N)ccc21 (configuration not stated) | 5.47
6 | CCCc1nn(C)c2c(=O)[nH]c(-c3cc(S(=O)(=O)N4CCN(C)CC4)ccc3OCC)nc12 | 5.54
7 | CC(C=C(c1ccccc1)c1ccccc1)N(C)C (configuration not stated) | 5.72
8 | CCNCCN1C(=O)CN=C(c2ccccc2F)c2cc(Cl)ccc21 | 6.19
9 | NC1=Nc2ccc(Cl)cc2C(c2ccccc2)=[N+]([O-])C1 | 4.85
10 | CCC(Cc1ccc2c(c1)OCO2)NC (configuration not stated) | 3.61
11 | COc1cc(CCN)c(OC)cc1Br | 4.52
12 | COc1cc(CCN)c(OC)cc1I | 4.92
13 | CN(C)c1nc(N)c(C(=O)NC(=N)N)nc1Cl | 3.54
14 | CCOC(=O)[C@H](CCc1ccccc1)N[C@@H](C)C(=O)N1CCC[C@H]1C(=O)O | 5.23
15 | COc1ccc(N2CCNCC2)cc1 | 2.59
16 | COc1ccc(CCN(C)CCCC(C#N)(c2ccc(OC)c(OC)c2)C(C)C)cc1OC (configuration not stated) | 5.95
17 | CN1C(=O)CN=C(c2ccccc2F)c2cc(N)ccc21 [7-AMINO-FLUNITRAZEPAM] | 4.02
18 | Nc1ccc2c(c1)C(c1ccccc1)=NCC(=O)N2 [7-AMINO-NITRAZEPAM] | 2.26
19 | Nc1ccc2c(c1)C(c1ccccc1Cl)=NCC(=O)N2 [7-AMINOCLONAZEPAM] | 3.39
20 | CCCC(=O)Nc1ccc(OCC(O)CNC(C)C)c(C(C)=O)c1 (configuration not stated) [ACEBUTOLOL] | 4.07
21 | CC(=O)c1ccc2c(c1)N(CCCN(C)C)c1ccccc1S2 [ACEPROMAZINE] | 5.67
22 | Cc1ccc(/C(=C\CN2CCCC2)c2cccc(/C=C/C(=O)O)n2)cc1 [ACRIVASTINE] | 5.64
23 | Cc1nnc2n1-c1ccc(Cl)cc1C(c1ccccc1)=NC2 [ALPRAZOLAM] | 6.09

Row | Structure (SMILES) | Retention_time [min]
24 | CCN1CCCC1CNC(=O)c1cc(S(=O)(=O)CC)c(N)cc1OC (configuration not stated) [AMISULPRIDE] | 3.4
25 | CN(C)CCC=C1c2ccccc2CCc2ccccc21 [AMITRIPTYLINE] | 5.86
26 | CCOC(=O)C1=C(COCCN)NC(C)=C(C(=O)OC)C1c1ccccc1Cl (configuration not stated) [AMLODIPINE] | 5.94
27 | CC(N)Cc1ccccc1 (configuration not stated) [AMPHETAMINE] | 2.6
28 | O=C1CCc2ccc(OCCCCN3CCN(c4cccc(Cl)c4Cl)CC3)cc2N1 [ARIPIPRAZOLE] | 5.9
29 | CN(C)C(=O)Oc1cc(OC(=O)N(C)C)cc(C(O)CNC(C)(C)C)c1 (configuration not stated) [BAMBUTEROL] | 4.84
30 | CCOC(=O)c1ccc(N)cc1 [BENZOCAINE] | 5.15
31 | C[C@@H](Cc1ccccc1)N(C)Cc1ccccc1 [BENZPHETAMINE] | 5.24
32 | OC(CCN1CCCCC1)(c1ccccc1)C1CC2C=CC1C2 (configuration not stated) [BIPERIDEN] | 5.78
33 | CC(C)NCC(O)COc1ccc(COCCOC(C)C)cc1 (configuration not stated) [BISOPROLOL] | 5.06
34 | O=C1CN=C(c2ccccn2)c2cc(Br)ccc2N1 [BROMAZEPAM] | 5.33
35 | Cc1nnc2n1-c1sc(Br)cc1C(c1ccccc1Cl)=NC2 [BROTIZOLAM] | 6.27
36 | CCCCN1CCCCC1C(=O)Nc1c(C)cccc1C (configuration not stated) [BUPIVACAINE] | 5.08
37 | CO[C@]12CC[C@@]3(C[C@@H]1[C@](C)(O)C(C)(C)C)[C@H]1Cc4ccc(O)c5c4[C@@]3(CCN1CC1CC1)[C@H]2O5 [BUPRENORPHINE] | 5.59
38 | O=C1CC2(CCCC2)CC(=O)N1CCCCN1CCN(c2ncccn2)CC1 [BUSPIRONE] | 5.14
39 | COc1ccccc1OCCNCC(O)COc1cccc2[nH]c3ccccc3c12 (configuration not stated) [CARVEDILOL] | 5.71
40 | C[C@H](N)[C@@H](O)c1ccccc1 [CATHINE] | 2.05
41 | C[C@H](N)C(=O)c1ccccc1 [CATHINONE] | 2.09
42 | CNC1=Nc2ccc(Cl)cc2C(c2ccccc2)=[N+]([O-])C1 [CHLORDIAZEPOXIDE] | 4.94
43 | Clc1cccc(N2CCNCC2)c1 [CHLOROPHENYLPIPERAZINE] | 4.08
44 | CN(C)CCCN1c2ccccc2Sc2ccc(Cl)cc21 [CHLORPROMAZINE] | 6.12
45 | CN(C)CC/C=C1/c2ccccc2Sc2ccc(Cl)cc21 [CHLORPROTHIXENE] | 6.18
46 | C(=C\c1ccccc1)/CN1CCN(C(c2ccccc2)c2ccccc2)CC1 [CINNARIZINE] | 6.57

Row | Structure (SMILES) | Retention_time [min]
47 | CN(C)CCCC1(c2ccc(F)cc2)OCc2cc(C#N)ccc21 (configuration not stated) [CITALOPRAM] | 5.53
48 | CN1C(=O)CC(=O)N(c2ccccc2)c2cc(Cl)ccc21 [CLOBAZAM] | 6.28
49 | CN(C)CCCN1c2ccccc2CCc2ccc(Cl)cc21 [CLOMIPRAMINE] | 6.22
50 | O=C1CN=C(c2ccccc2Cl)c2cc([N+](=O)[O-])ccc2N1 [CLONAZEPAM] | 5.99
51 | Clc1cccc(Cl)c1N=C1NCCN1 [CLONIDINE] | 2.44
52 | CN1CCN(C2=Nc3cc(Cl)ccc3Nc3ccccc32)CC1 [CLOZAPINE] | 5.1
53 | COC(=O)[C@H]1[C@@H](OC(=O)c2ccccc2)C[C@@H]2CC[C@H]1N2C [COCAINE] | 4.46
54 | COc1ccc2c3c1O[C@H]1[C@@H](O)C=C[C@H]4[C@@H](C2)N(C)CC[C@@]341 [CODEINE] | 2.5
55 | CN1CCN(C(c2ccccc2)c2ccccc2)CC1 [CYCLIZINE] | 5.52
56 | O=C1C[N+]([O-])=C(c2ccccc2)c2cc(Cl)ccc2N1 [DEMOXEPAM] | 5.62
57 | COc1ccc2c(c1)[C@]13CCCC[C@@H]1[C@H](C2)N(C)CC3 [DEXTROMETHORPHAN] | 5.38
58 | CN1CC[C@@]23CCCC[C@@H]2[C@@H]1Cc1ccc(O)cc13 [DEXTRORPHAN] | 3.82
59 | CCN(CC)C(C)C(=O)c1ccccc1 (configuration not stated) [DIETHYLPROPION] | 3.05
60 | COc1ccc([C@@H]2Sc3ccccc3N(CCN(C)C)C(=O)[C@@H]2OC(C)=O)cc1 [DILTIAZEM] | 5.63
61 | CCOC(=O)C1(c2ccccc2)CCN(CCC(C#N)(c2ccccc2)c2ccccc2)CC1 [DIPHENOXYLATE] | 6.56
62 | COc1cc(CC(C)N)c(OC)cc1C (configuration not stated) [DOM] | 4.67
63 | COc1cc2nc(N3CCN(C(=O)C4COc5ccccc5O4)CC3)nc(N)c2cc1OC (configuration not stated) [DOXAZOSIN] | 5.43
64 | CN(C)CCC=C1c2ccccc2COc2ccccc21 [DOXEPIN] | 5.59
65 | c1cc2c(c(N3CCNCC3)c1)OCCO2 [ELTOPRAZINE] | 4.9
66 | CN[C@@H](C)[C@H](O)c1ccccc1 [EPHEDRINE] | 2.28
67 | Clc1ccc2c(c1)C(c1ccccc1)=NCc1nncn1-2 [ESTAZOLAM] | 5.95
68 | CCOC(=O)C1=C(C)NC(C)=C(C(=O)OC)C1c1cccc(Cl)c1Cl (configuration not stated) [FELODIPINE] | 7.44
69 | O=C(NCC1CCCCN1)c1cc(OCC(F)(F)F)ccc1OCC(F)(F)F (configuration not stated) [FLECAINIDE] | 5.58

Row | Structure (SMILES) | Retention_time [min]
70 | CCOC(=O)c1ncn2c1CN(C)C(=O)c1cc(F)ccc1-2 [FLUMAZENIL] | 5.13
71 | CN1C(=O)CN=C(c2ccccc2F)c2cc([N+](=O)[O-])ccc21 [FLUNITRAZEPAM] | 6.16
72 | CNCCC(Oc1ccc(C(F)(F)F)cc1)c1ccccc1 (configuration not stated) [FLUOXETINE] | 6.08
73 | CCN(CC)CCN1C(=O)CN=C(c2ccccc2F)c2cc(Cl)ccc21 [FLURAZEPAM] | 5.53
74 | COCCCC/C(=N\OCCN)c1ccc(C(F)(F)F)cc1 [FLUVOXAMINE] | 5.91
75 | NCC1(CC(=O)O)CCCCC1 [GABAPENTIN] | 2.41
76 | O=C1CN=C(c2ccccc2)c2cc(Cl)ccc2N1CC(F)(F)F [HALAZEPAM] | 7.22
77 | O=C(CCCN1CCC(O)(c2ccc(Cl)cc2)CC1)c1ccc(F)cc1 [HALOPERIDOL] | 5.57
78 | COc1ccc2c3c1O[C@H]1C(=O)CC[C@H]4[C@@H](C2)N(C)CC[C@]314 [HYDROCODONE] | 2.96
79 | CN1CC[C@]23c4c5ccc(O)c4O[C@H]2C(=O)CC[C@H]3[C@H]1C5 [HYDROMORPHONE] | 1.84
80 | OCCOCCN1CCN(C(c2ccccc2)c2ccc(Cl)cc2)CC1 (configuration not stated) [HYDROXYZINE] | 5.91
81 | CC[C@H]1C[C@@H]2C[C@H]3c4[nH]c5ccc(OC)cc5c4CCN(C2)[C@@H]13 [IBOGAINE] | 4.94
82 | CN(C)CCCN1c2ccccc2CCc2ccccc21 [IMIPRAMINE] | 5.81
83 | CC1Cc2ccccc2N1NC(=O)c1ccc(Cl)c(S(N)(=O)=O)c1 (configuration not stated) [INDAPAMIDE] | 5.79
84 | COC(=O)C1=C(C)NC(C)=C(C(=O)OC(C)C)C1c1cccc2nonc12 (configuration not stated) [ISRADIPINE] | 7
85 | CNC1(c2ccccc2Cl)CCCCC1=O (configuration not stated) [KETAMINE] | 3.57
86 | CCC(=O)C1(c2cccc(O)c2)CCN(C)CC1 [KETOBEMIDONE] | 3.22
87 | CC(CCc1ccccc1)NCC(O)c1ccc(O)c(C(N)=O)c1 (configuration not stated) [LABETALOL] | 4.95
88 | Nc1nnc(-c2cccc(Cl)c2Cl)c(N)n1 [LAMOTRIGINE] | 3.78
89 | COC(=O)C1=C(C)NC(C)=C(C(=O)OC(C)(C)CN(C)CCC(c2ccccc2)c2ccccc2)C1c1cccc([N+](=O)[O-])c1 (configuration not stated) [LERCANIDIPINE] | 6.8
90 | COc1ccc2c(c1)N(C[C@H](C)CN(C)C)c1ccccc1S2 [LEVOMEPROMAZINE] | 5.98
91 | CN1CC[C@]23CCCC[C@H]2[C@H]1Cc1ccc(O)cc13 [LEVORPHANOL] | 3.82
92 | CN(C)C(=O)C(CCN1CCC(O)(c2ccc(Cl)cc2)CC1)(c1ccccc1)c1ccccc1 [LOPERAMIDE] | 6.37
